Measurements from patent US11731964B2, “Benzamide antibacterial agents” (Purdue Research Foundation, priority 2018, dated 2023).
Values after ≈ are worked out from the molar mass of the structure shown. Like-named read-outs stand apart in the source and are kept apart here.

Columns and labels:
[1] = system: Escherichia coli JW5503-1 (ΔtolC); assay: MIC against Gram-negative pathogens (efflux pump knockout); type: cell-based
Experimental: (§1) Bacteria were cultured in cation-adjusted Mueller Hinton Broth (for strains in Tables 1 and 4) or Brain Heart Infusion broth (for Enterococcus faecium) or Tryptic Soy Broth (all other bacteria) in a 96-well plate at 37° C. for at least 20 hours. The MIC was classified as the lowest concentration where no visual growth of bacteria was observed. The minimum bactericidal concentration (MBC) was tested by spotting 4 μL from wells with no growth onto Tryptic Soy Agar (TSA) plates. Plates were incubated at 37° C. for at least 18 hours before recording the MBC.

Escherichia coli BW25113 = assay: MIC against Gram-negative pathogens; type: cell-based
Experimental: as §1

MRSA ATCC 33592 = assay: MIC, broth microdilution; type: cell-based; details: Staphylococcus aureus
Experimental: as §1

[2] = system: C. difficile NR-32904 (P30); assay: Clostridium difficile inhibition analysis; type: cell-based; details: for Antibacterial activity: Table 7, C. difficile NR-32904 (P30)
[3] = system: C. difficile NR-13432 (isolate 6); assay: Clostridium difficile inhibition analysis; type: cell-based; details: for Antibacterial activity: Table 7, C. difficile NR-13432 (isolate 6)
S. aureus = assay: MIC (Table 5, strain not given); type: cell-based; details: Staphylococcus aureus; S. aureus (Table 5)
Experimental: as §1

VRE = assay: MIC (Table 5, strain not given); type: cell-based; details: Enterococcus; VRE (Table 5)
Experimental: as §1

L. monocytogenes = assay: MIC (Table 5, strain not given); type: cell-based; details: Listeria monocytogenes; L. monocytogenes (Table 5)
Experimental: as §1

E. faecalis = assay: MIC (Table 5, strain not given); type: cell-based; details: Enterococcus faecalis; E. faecalis (Table 5)
Experimental: as §1

[4] = system: C. difficile NR-32883 (P2); assay: Clostridium difficile inhibition analysis; type: cell-based; details: for Antibacterial activity: Table 7, C. difficile NR-32883 (P2)
[5] = system: Clostridium difficile ATCC 43255; assay: Clostridium difficile inhibition analysis; type: cell-based; details: for Antibacterial activity: Table 7, C. difficile ATCC 43255
[6] = system: C. difficile NR-13435 (isolate 9); assay: Clostridium difficile inhibition analysis; type: cell-based; details: for Antibacterial activity: Table 7, C. difficile NR-13435 (isolate 9)
[7] = system: C. difficile NR-32891 (P13); assay: Clostridium difficile inhibition analysis; type: cell-based; details: for Antibacterial activity: Table 7, C. difficile NR-32891 (P13)
[8] = system: C. difficile NR-32895 (P19); assay: Clostridium difficile inhibition analysis; type: cell-based; details: for Antibacterial activity: Table 7, C. difficile NR-32895 (P19)
MRSA USA300 = assay: Time-kill analysis; type: cell-based, Staphylococcus aureus
Experimental: The time-kill analysis was performed as previously described^29. […] Aliquots (100 μL) were collected from each treatment after 0, 2, 4, 8, 12, and 24 hours of incubation at 37° C. and subsequently serially diluted in phosphate-buffered saline (PBS). Bacteria were then transferred to TSA plates and incubated at 37° C. for 18-20 hours before viable CFU/mL was determined.

MRSA NRS119 = assay: MIC and MBC; type: cell-based, Staphylococcus aureus
Experimental: as §1

VRSA VRS12 = assay: MIC and MBC; type: cell-based, S. aureus
Experimental: as §1

VISA NRS1 = assay: MIC and MBC; type: cell-based, S. aureus; details: Staphylococcus aureus
Experimental: as §1

E. faecium ATCC = assay: MIC and MBC; type: cell-based
Experimental: as §1

MRSA NRS384 (USA300) = assay: MIC and MBC; type: cell-based; details: Staphylococcus aureus
Experimental: as §1

MRSA NRS123 (USA400) = assay: MIC and MBC; type: cell-based; details: Staphylococcus aureus
Experimental: as §1

MRSA NRS386 (USA700) = assay: MIC and MBC; type: cell-based; details: Staphylococcus aureus
Experimental: as §1

MRSA NRS387 (USA800) = assay: MIC and MBC; type: cell-based; details: Staphylococcus aureus
Experimental: as §1

MRSA NRS385 (USA500) = assay: MIC and MBC; type: cell-based; details: Staphylococcus aureus
Experimental: as §1

[9] = system: Clostridium difficile ATCC BAA 1801; assay: Clostridium difficile inhibition analysis; type: cell-based
[10] = system: Clostridium difficile ATCC 9689; assay: Clostridium difficile inhibition analysis; type: cell-based; details: Table 6, ATCC 9689
E. faecalis ATCC 29212 = assay: MIC, broth microdilution; type: cell-based; details: Enterococcus faecalis, ATCC29212
Experimental: as §1

[11] = system: VRE (E. faecalis) ATCC 51575; assay: MIC, broth microdilution; type: cell-based
Experimental: as §1

S. aureus ATCC 25923 = assay: MIC, broth microdilution; type: cell-based; details: Staphylococcus aureus, ATCC25923
Experimental: as §1

[12] = system: L. monocytogenes ATCC 19115; assay: MIC, broth microdilution; type: cell-based; details: Listeria monocytogenes, ATCC19115
Experimental: as §1

[13] = system: Acinetobacter baumannii ATCC 19606; assay: MIC against Gram-negative pathogens; type: cell-based
Experimental: as §1

[14] = system: Klebsiella pneumoniae BAA-1706; assay: MIC against Gram-negative pathogens; type: cell-based
Experimental: as §1

[15] = system: Pseudomonas aeruginosa ATCC 15442; assay: MIC against Gram-negative pathogens; type: cell-based
Experimental: as §1

## CC[C@H]1OC(=O)[C@H](C)[C@@H](O[C@H]2C[C@@](C)(OC)[C@@H](O)[C@H](C)O2)[C@H](C)[C@@H](O[C@@H]2O[C@H](C)C[C@H](N(C)C)[C@H]2O)[C@](C)(O)C[C@@H](C)C(=O)[C@H](C)[C@@H](O)[C@]1(C)O [Erythromycin]
[1]
  MIC: ≤ 1 µg/mL
Escherichia coli BW25113; Escherichia coli BW25113 (wild-type), read-out: MIC
  MIC: 32 µg/mL (≈ 43.6 µM)

## C[C@@H]1C[C@H](C)CN(S(=O)(=O)c2ccc(C(=O)Nc3nnc(-c4ccc(C(F)(F)F)cc4)o3)cc2)C1 [HSGN-94, 4-(((3S,5R)-3,5-dimethylpiperidin-1-yl)sulfonyl)-N-(5-(4-(trifluoromethyl)phenyl)-1,3,4-oxadiazol-2-yl)benzamide]
MRSA ATCC 33592; MRSA ATCC 33592, read-out: MIC
  MIC: 0.25 µg/mL (≈ 0.492 µM)
[2]
  Antibacterial activity: 0.125
[3]
  Antibacterial activity: 0.06
S. aureus
  MIC: 0.25 µg/mL (≈ 0.492 µM)
VRE
  MIC: 1 µg/mL (≈ 1.97 µM)
L. monocytogenes
  MIC: 0.5 µg/mL (≈ 0.983 µM)
E. faecalis
  MIC: 2 µg/mL (≈ 3.93 µM)
[4]
  Antibacterial activity: 0.06
[5]
  Antibacterial activity: 0.06
[6]
  Antibacterial activity: 0.06
[7]
  Antibacterial activity: 0.125
[8]
  Antibacterial activity: 0.06

## CC(=O)NC[C@H]1CN(c2ccc(N3CCOCC3)c(F)c2)C(=O)O1 [Linezolid]
[1]
  MIC: 8 µg/mL (≈ 23.7 µM)
MRSA USA300; 3×MIC, after a 24-hour incubation period
  reduction in MRSA USA300 (time-kill): 2.16 log10
MRSA USA300; time-kill analysis and MBC
  in vitro effect against MRSA USA300: bacteriostatic
MRSA NRS119; MRSA NRS119
  MIC: inactive
MRSA NRS119; Staphylococcus aureus, MRSA NRS119, read-out: MBC
  MBC: 32 µg/mL (≈ 94.9 µM)
MRSA NRS119; Staphylococcus aureus, MRSA NRS119, read-out: MIC
  MIC: 32 µg/mL (≈ 94.9 µM)
VRSA VRS12; Staphylococcus aureus, VRSA VRS12, read-out: MBC
  MBC: 32 µg/mL (≈ 94.9 µM)
VRSA VRS12; Staphylococcus aureus, VRSA VRS12, read-out: MIC
  MIC: ≤ 1 µg/mL
VISA NRS1; VISA NRS1, read-out: MBC
  MBC: 1 µg/mL (≈ 2.96 µM)
VISA NRS1; VISA NRS1, read-out: MIC
  MIC: ≤ 1 µg/mL
E. faecium ATCC; Enterococcus faecium, E. faecium ATCC, read-out: MBC
  MBC: 64 µg/mL (≈ 190 µM)
E. faecium ATCC; Enterococcus faecium, E. faecium ATCC, read-out: MIC
  MIC: ≤ 1 µg/mL
MRSA NRS384 (USA300); MRSA NRS384 (USA300), read-out: MBC
  MBC: 64 µg/mL (≈ 190 µM)
MRSA NRS384 (USA300); MRSA NRS384 (USA300), read-out: MIC
  MIC: ≤ 1 µg/mL
MRSA NRS123 (USA400); MRSA NRS123 (USA400), read-out: MBC
  MBC: 64 µg/mL (≈ 190 µM)
MRSA NRS123 (USA400); MRSA NRS123 (USA400), read-out: MIC
  MIC: ≤ 1 µg/mL
MRSA NRS386 (USA700); MRSA NRS386 (USA700), read-out: MBC
  MBC: 128 µg/mL (≈ 379 µM)
MRSA NRS386 (USA700); MRSA NRS386 (USA700), read-out: MIC
  MIC: ≤ 1 µg/mL
MRSA NRS387 (USA800); MRSA NRS387 (USA800), read-out: MBC
  MBC: 128 µg/mL (≈ 379 µM)
MRSA NRS387 (USA800); MRSA NRS387 (USA800), read-out: MIC
  MIC: ≤ 1 µg/mL
MRSA NRS385 (USA500); MRSA NRS385 (USA500), read-out: MBC
  MBC: 2 µg/mL (≈ 5.93 µM)
MRSA NRS385 (USA500); MRSA NRS385 (USA500), read-out: MIC
  MIC: ≤ 1 µg/mL
Escherichia coli BW25113; Escherichia coli, BW25113
  MIC: > 128 µg/mL

## CN[C@H](CC(C)C)C(=O)N[C@H]1C(=O)N[C@@H](CC(N)=O)C(=O)N[C@H]2C(=O)N[C@H]3C(=O)N[C@H](C(=O)N[C@H](C(=O)O)c4cc(O)cc(O)c4-c4cc3ccc4O)[C@H](O)c3ccc(c(Cl)c3)Oc3cc2cc(c3O[C@@H]2O[C@H](CO)[C@@H](O)[C@H](O)[C@H]2O[C@H]2C[C@](C)(N)[C@H](O)[C@H](C)O2)Oc2ccc(cc2Cl)[C@H]1O [Vancomycin, reference compound]
[9]; Table 6, ATCC BAA 1801
  Clostridium difficile inhibition: 1
[9]; Table 7, C. difficile ATCC BAA 1801
  Antibacterial activity: 1
[10]
  Clostridium difficile inhibition: 0.5
E. faecalis ATCC 29212
  MIC: 2 µg/mL (≈ 1.38 µM)
MRSA ATCC 33592
  MIC: 2 µg/mL (≈ 1.38 µM)
[11]
  MIC: > 128 µg/mL
S. aureus ATCC 25923
  MIC: 2 µg/mL (≈ 1.38 µM)
[12]
  MIC: 1 µg/mL (≈ 0.69 µM)
MRSA NRS119; Staphylococcus aureus
  MBC: ≤ 1 µg/mL
  MIC: ≤ 1 µg/mL
[2]; Table 6, P30
  Clostridium difficile inhibition: 0.5
[2]
  Antibacterial activity: 1
[3]; Table 6, I6
  Clostridium difficile inhibition: 1
[3]
  Antibacterial activity: 0.25
[4]; Table 6, P2
  Clostridium difficile inhibition: 0.5
[4]
  Antibacterial activity: 0.5
VRSA VRS12; Staphylococcus aureus, VRSA
  MBC: > 128 µg/mL
  MIC: > 128 µg/mL
VRSA VRS12; VRSA VRS12
  MIC: >128 µg/mL
VISA NRS1
  MBC: 4 µg/mL (≈ 2.76 µM)
  MIC: 4 µg/mL (≈ 2.76 µM)
[5]; Table 6, ATCC 43255
  Clostridium difficile inhibition: 1
[5]
  Antibacterial activity: 1
E. faecium ATCC; E. faecium ATCC
  MIC: >128 µg/mL
E. faecium ATCC; Enterococcus faecium
  MBC: > 128 µg/mL
  MIC: > 128 µg/mL
MRSA NRS384 (USA300)
  MBC: ≤ 1 µg/mL
  MIC: ≤ 1 µg/mL
MRSA NRS123 (USA400)
  MBC: ≤ 1 µg/mL
  MIC: ≤ 1 µg/mL
MRSA NRS386 (USA700)
  MBC: ≤ 1 µg/mL
  MIC: ≤ 1 µg/mL
MRSA NRS387 (USA800)
  MBC: 2 µg/mL (≈ 1.38 µM)
  MIC: 2 µg/mL (≈ 1.38 µM)
MRSA NRS385 (USA500)
  MBC: 2 µg/mL (≈ 1.38 µM)
  MIC: ≤ 1 µg/mL
[6]; Table 6, I9
  Clostridium difficile inhibition: 2
[6]
  Antibacterial activity: 1
[7]; Table 6, P13
  Clostridium difficile inhibition: 0.5
[7]
  Antibacterial activity: 0.5
[8]; Table 6, P19
  Clostridium difficile inhibition: 4
[8]
  Antibacterial activity: 1

## Colistin [reference compound]
[13]
  MIC: ≤1 µg/mL
[14]
  MIC: ≤1 µg/mL
[15]
  MIC: ≤1 µg/mL
